Patent publication US12589158B2 (priority 2022, dated 2026)
Where a SMILES comes first, the peptide text is derived from it.

Experiments:
[1] = biological target: T1, human GLP-1 receptor (Homo sapiens, UniProt P43220); experiment: In vitro binding activity to human GLP-1 receptor ([125I]GLP-1, crude cellular membranes); settings: ratio of the Ki value of the endogenous ligand to the Ki value of the test compound; larger = stronger binding
T1 construct: expressed in transfected cells; crude membranes
Method: 89 μL of membrane dissolved in binding buffer (50 mM Hepes, pH 7.4, 5 mM MgCl2, 5 mM EDTA, 0.005% TWEEN, 0.005% HSA) is transferred to a 96-well test plate (5 μg/well). The compound is serially diluted in DMSO, and then, 1 μL of the diluted compound or 100% DMSO is added to the test plate containing the membrane solution. 10 μL of [^125I] […] The test plate is left at room temperature for 90 minutes. The membrane complexes are harvested into a GF/B plate pre-coated with 0.5% PEI by using a Cell Harvester, and washed for 3 times with 500 μL of pre-cooled elution buffer (50 mM Hepes, pH 7.4, 500 mM NaCl) at 4° C. After drying at 37° C. for 2 hours, 50 μL of scintillation fluid is added to each well. The plate is read with a MicroBeta2 scintillation counter after sealing and settling for at least 1 hour so as to determine the membrane bound radioligand level.
(§1) The absolute IC50 concentration of the compound is derived by non-linear regression of the binding percent of [^125I] […] The IC50 concentration is converted to Ki (Ki is the inhibition constant) using the Cheng-Prusoff equation.

[2] = biological target: T2, human GIP receptor (Homo sapiens, UniProt P48546); experiment: In vitro binding activity to human GIP receptor ([125I]GIP, crude cellular membranes); settings: ratio of the Ki value of the endogenous ligand to the Ki value of the test compound; larger = stronger binding
T2 construct: expressed in transfected cells; crude membranes
T2 sequence (P48546 22-466): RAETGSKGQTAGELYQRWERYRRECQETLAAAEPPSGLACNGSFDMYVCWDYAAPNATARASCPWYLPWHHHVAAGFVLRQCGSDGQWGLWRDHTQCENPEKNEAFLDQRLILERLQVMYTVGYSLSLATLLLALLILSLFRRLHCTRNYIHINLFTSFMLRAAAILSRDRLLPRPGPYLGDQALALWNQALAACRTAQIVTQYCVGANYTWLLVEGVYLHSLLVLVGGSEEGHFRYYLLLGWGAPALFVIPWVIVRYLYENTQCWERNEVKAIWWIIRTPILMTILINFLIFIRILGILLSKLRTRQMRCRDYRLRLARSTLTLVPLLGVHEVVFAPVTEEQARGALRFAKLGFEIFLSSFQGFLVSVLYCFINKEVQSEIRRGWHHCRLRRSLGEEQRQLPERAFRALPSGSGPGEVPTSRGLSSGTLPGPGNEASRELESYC
Method: The compound is serially diluted in DMSO, and then, 2 μL of the diluted compounds or 100% DMSO is added to the test plate containing the membrane solution. […] The test plate is left at room temperature for 90 minutes. […] After drying at 37° C. for 2 hours, 50 μL of scintillation fluid is added to each well. The plate is read with a MicroBeta2 scintillation counter after sealing and settling for at least 1 hour so as to determine the membrane bound radioligand level.
as §1

[3] = test system: db/db mice; experiment: Pharmacodynamics in db/db mice, single subcutaneous administration (blood glucose); format: in vivo; settings: longest time with random blood glucose P<0.05 vs. vehicle
Method: The “inhibition of blood glucose AUC” as disclosed in the present invention is the reduction percentage of blood glucose AUC in the group taken the test compound as compared with the group taken the Vehicle. Inhibition of blood glucose AUC=(blood glucose AUCVehicle-blood glucose AUCtest compound)/blood glucose AUCVehicle.
In this study, 8-9 week old male db/db mice are used. The db/db mice are placed in an individual ventilated cage (IVC) facility with a controlled temperature (20-26° C.) and humidity (40-70%) and a controlled 12h: 12 h light-dark cycle. The mice received food and water ad libitum. Blood is sampled at the tail tip, and the fasting blood glucose is measured by a Roche blood glucose meter. The mice are randomly divided into groups according to the initial blood glucose and initial body weight (n=6/group), and each group had similar body weight and blood glucose.
After a single subcutaneous administration, the random blood glucoses are recorded at the set time point (0 to 120 hours, the recording of the random blood glucose is stopped until there is no difference between the random blood glucose of the compound and that of the vehicle group), and the daily body weight and food intake are also recorded. The data results are statistically analyzed using GraphPad Prism8, and the statistical differences among the groups are analyzed following a T-Test. […]

[4] = Pharmacokinetics following single administration in SD rat; set-up: species or system SD rats; settings: in vivo, sc, 50 nmol/kg
Procedure, shortened: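 Male SD rats (230–268 g, n=3) dosed once at 50.0 nmol/kg s.c. or 25.0 nmol/kg i.v. Plasma protein precipitated with acetonitrile containing internal standards; drug concentration measured by LC-MS/MS.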

T1 sequence (P43220 24-463): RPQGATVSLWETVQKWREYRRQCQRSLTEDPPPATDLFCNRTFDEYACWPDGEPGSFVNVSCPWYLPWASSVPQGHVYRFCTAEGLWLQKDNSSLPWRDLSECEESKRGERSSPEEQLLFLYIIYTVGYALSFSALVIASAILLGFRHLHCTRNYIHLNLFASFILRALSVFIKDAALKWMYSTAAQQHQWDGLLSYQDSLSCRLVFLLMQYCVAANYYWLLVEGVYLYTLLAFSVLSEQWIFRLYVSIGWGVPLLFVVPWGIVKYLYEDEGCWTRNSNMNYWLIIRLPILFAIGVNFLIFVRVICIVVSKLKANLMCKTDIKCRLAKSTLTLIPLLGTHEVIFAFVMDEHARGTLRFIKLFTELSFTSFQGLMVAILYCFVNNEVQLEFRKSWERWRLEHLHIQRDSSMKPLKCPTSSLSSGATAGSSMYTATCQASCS

Row | SMILES | GLP-1R Ki ratio [1] | GIPR Ki ratio [2] | Hypoglycemic Duration ([3]; Group 1, single s.c. 10 nmol/kg) | MRT inf [4] | MRT last [4] | Hypoglycemic Duration ([3]; Group 2, single s.c. 10 nmol/kg)
1 | CC[C@H](C)[C@H](NC(=O)C(C)(C)NC(=O)[C@H](Cc1ccc(O)cc1)NC(=O)[C@H](CC(=O)O)NC(=O)[C@H](CO)NC(=O)[C@@H](NC(=O)C(C)(Cc1ccccc1)NC(=O)[C@@H](NC(=O)CNC(=O)[C@H](CCC(=O)O)NC(=O)C(C)(C)NC(=O)[C@@H](N)Cc1ccc(O)cc1)[C@@H](C)O)[C@@H](C)O)C(=O)NC(C)(C)C(=O)N[C@@H](CC(C)C)C(=O)N[C@@H](CC(=O)O)C(=O)N[C@@H](CCCCN)C(=O)N[C@@H](CCC(N)=O)C(=O)N[C@@H](C)C(=O)N[C@@H](CCC(N)=O)C(=O)N[C@@H](C)C(=O)N[C@@H](CCC(=O)O)C(=O)N[C@@H](Cc1ccccc1)C(=O)N[C@H](C(=O)N[C@@H](CCCCN)C(=O)N[C@@H](Cc1c[nH]c2ccccc12)C(=O)N[C@@H](CC(C)C)C(=O)N[C@@H](CC(C)C)C(=O)N[C@@H](CCCCN)C(=O)NCC(=O)NCC(=O)N1CCC[C@H]1C(=O)N[C@@H](CO)C(=O)N[C@@H](CO)C(=O)NCC(=O)N[C@@H](C)C(=O)N1CCC[C@H]1C(=O)N1CCC[C@H]1C(=O)N1CCC[C@H]1C(=O)N[C@@H](CO)C(=O)N[C@@H](CCCCN)C(N)=O)C(C)C (stereo partly shown) [P001, reference compound] (HELM PEPTIDE1{Y.[Aib].E.G.T.[CC(Cc1ccccc1)(N[*:1])C(=O)[*:2]].T.S.D.Y.[Aib].I.[Aib].L.D.K.Q.A.Q.A.E.F.V.K.W.L.L.K.G.G.P.S.S.G.A.P.P.P.S.K.[am]}$$$$V2.0; N-terminus assumed) | 19.52 | 8.82 | 32 h |  |  | 
2 | CC[C@H](C)[C@H](NC(=O)C(C)(C)NC(=O)[C@H](Cc1ccc(O)cc1)NC(=O)[C@H](CC(=O)O)NC(=O)[C@H](CO)NC(=O)[C@@H](NC(=O)C(C)(Cc1ccccc1)NC(=O)[C@@H](NC(=O)CNC(=O)[C@H](CCC(=O)O)NC(=O)C(C)(C)NC(=O)[C@@H](N)Cc1ccc(O)cc1)[C@@H](C)O)[C@@H](C)O)C(=O)NC(C)(C)C(=O)N[C@@H](CC(C)C)C(=O)N[C@@H](CC(=O)O)C(=O)N[C@@H](CCCCN)C(=O)N[C@@H](CCC(N)=O)C(=O)N[C@@H](C)C(=O)N[C@@H](CCC(N)=O)C(=O)N[C@@H](C)C(=O)N[C@@H](CCC(=O)O)C(=O)N[C@@H](Cc1ccccc1)C(=O)N[C@H](C(=O)N[C@@H](CCCCNC(=O)COCCOCCNC(=O)COCCOCCNC(=O)CC[C@H](NC(=O)CC[C@H](NC(=O)CC[C@H](NC(=O)CCCCCCCCCCCCCCCCC(=O)O)C(=O)O)C(=O)O)C(=O)O)C(=O)N[C@@H](Cc1c[nH]c2ccccc12)C(=O)N[C@@H](CC(C)C)C(=O)N[C@@H](CC(C)C)C(=O)N[C@@H](CCCCN)C(=O)NCC(=O)NCC(=O)N1CCC[C@H]1C(=O)N[C@@H](CO)C(=O)N[C@@H](CO)C(=O)NCC(=O)N[C@@H](C)C(=O)N1CCC[C@H]1C(=O)N1CCC[C@H]1C(=O)N1CCC[C@H]1C(=O)N[C@@H](CO)C(=O)N[C@@H](CCCCN)C(N)=O)C(C)C (stereo partly shown) [P015] | 0.17 |  |  | 31.4 ± 1.35 h | 26.8 ± 0.557 h | 32 h
